# Measured values reported in PMC4950071, “Reaction of pyranose dehydrogenase from Agaricus meleagris with its carbohydrate substrates” (The Febs Journal, 2015).
# What was measured:
# Test in all cases: steady-state kinetics, ferrocenium reduction
# Assay type in all cases: biochemical
# [1] = molecular target: T1, AmPDH (pyranose dehydrogenase from Agaricus meleagris; A. meleagris PDH1) (Macropsalliota meleagris, UniProt Q3L245); settings: apparent; electron acceptor; 25 mM glucose fixed, 100 mM borate pH 8.5, 30 °C; read-out: Fc^+ / K M
# T1 construct: C-terminal His6 tag; covalent FAD
# Excerpt: (§1) steady-state kinetics, ferrocenium reduction on AmPDH (pyranose dehydrogenase from Agaricus meleagris; A. meleagris PDH1)
# [2] = molecular target: T2, AmPDH (pyranose dehydrogenase from Agaricus meleagris; A. meleagris PDH1) (Macropsalliota meleagris, UniProt Q3L245, H128A); settings: apparent; electron acceptor; 50 mM glucose fixed, 100 mM borate pH 8.5, 30 °C; non-covalently bound FAD; read-out: Fc^+ / K M
# T2 construct: C-terminal His6 tag; covalent FAD
# Excerpt: as §1
# [3] = molecular target: T3, AmPDH (pyranose dehydrogenase from Agaricus meleagris; A. meleagris PDH1) (Macropsalliota meleagris, UniProt Q3L245, H581A); settings: apparent; electron acceptor; 500 mM glucose fixed, 100 mM borate pH 8.5, 30 °C; read-out: Fc^+ / K M
# T3 construct: C-terminal His6 tag; covalent FAD
# Excerpt: as §1
# T1 sequence (Q3L245 26-602): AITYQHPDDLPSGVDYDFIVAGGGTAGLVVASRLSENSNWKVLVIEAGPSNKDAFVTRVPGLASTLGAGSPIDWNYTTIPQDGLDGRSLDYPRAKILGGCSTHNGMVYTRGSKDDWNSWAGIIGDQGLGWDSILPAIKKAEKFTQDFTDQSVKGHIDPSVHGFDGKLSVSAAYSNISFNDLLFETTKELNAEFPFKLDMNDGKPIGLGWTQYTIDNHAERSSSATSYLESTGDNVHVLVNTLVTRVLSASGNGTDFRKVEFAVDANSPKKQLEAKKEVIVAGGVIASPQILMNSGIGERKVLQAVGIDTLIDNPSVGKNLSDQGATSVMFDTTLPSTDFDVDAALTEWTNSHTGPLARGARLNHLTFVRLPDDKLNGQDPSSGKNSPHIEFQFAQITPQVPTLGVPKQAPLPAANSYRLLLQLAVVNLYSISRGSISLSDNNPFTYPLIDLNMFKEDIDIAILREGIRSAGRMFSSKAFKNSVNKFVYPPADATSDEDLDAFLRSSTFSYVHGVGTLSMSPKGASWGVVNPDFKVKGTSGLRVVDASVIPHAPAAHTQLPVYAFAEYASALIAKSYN
# T3 sequence (Q3L245 26-602 H581A): as the sequence (Q3L245 26-602) above, with H556A counted along it
# T2 sequence (Q3L245 26-602 H128A): as the sequence (Q3L245 26-602) above, with H103A counted along it
compound,measurement,setting,value
"C1=CCC=C1.C1=CCC=C1.[Fe+3] [Fc^+, ferrocenium ion]",Km,[1],170 ± 20 µM
same,Km,[2],160 ± 10 µM
same,Km,[3],170 ± 10 µM
